Measured values: patent US8389555B2, “Medicaments” (Motac Neuroscience Limited, priority 2007, dated 2013)
Structures can show the parent of a compound that is named as a salt.

Assays:
[1] = biological target: T1, human dopamine D3 receptors (Homo sapiens, UniProt P35462); assay: Dopamine D3 receptor binding assay ([3H]spiperone, CHO cell membranes); details: for Ki: human D3 receptors in CHO cells, 0.2 nM [3H]spiperone, mean ± SEM, read-out: Affinity Ki (D3); for Selectivity Ki(D2)/Ki(D3): ratio of Ki(D2) to Ki(D3)
T1 construct: expressed in transfected cells
T1 sequence (P35462 whole entry): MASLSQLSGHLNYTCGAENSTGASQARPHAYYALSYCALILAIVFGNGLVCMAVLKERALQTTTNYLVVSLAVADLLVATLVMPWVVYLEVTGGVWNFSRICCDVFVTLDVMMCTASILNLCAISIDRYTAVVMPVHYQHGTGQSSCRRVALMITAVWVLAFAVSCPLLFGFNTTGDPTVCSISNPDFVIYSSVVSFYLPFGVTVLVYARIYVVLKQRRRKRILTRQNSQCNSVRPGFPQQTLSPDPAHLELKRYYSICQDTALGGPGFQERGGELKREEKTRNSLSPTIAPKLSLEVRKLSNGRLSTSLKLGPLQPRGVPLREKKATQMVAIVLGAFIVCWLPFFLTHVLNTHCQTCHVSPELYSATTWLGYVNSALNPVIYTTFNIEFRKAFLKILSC
Experimental: (§1) Compounds synthesized in Examples A, B, C and D were assayed to test their affinity for dopamine D3 and D2 receptors.
(§2) METHODS: Dopamine D2S and D3 Receptor Binding Assays
Human D3 receptors stably expressed in CHO cells were used as described by Sokoloff et al. (Sokoloff, P. et al., Eur. J. Pharmacol. 1992, 225, 331-337). The cell line was cultured in Dulbecco's modified Eagle's medium supplemented with 2 mM glutamine, and 10% dialyzed fetal bovine serum, and were grown in an atmosphere of 5% CO2 at 37° C. (Gibco™).
(§3) Human D2S- and D3 receptors expressing cell lines were grown to confluence. The medium was removed, and the cells were washed with 10 ml PBS buffer (140 mM NaCl, 3 mM KCl, 1.5 mM KH2PO4, 8 mM Na2HPO4, pH 7.4) at 4° C. After removing the wash buffer, the cells were scraped from the flasks into 15 ml of ice-cold media, and centrifuged at 3,000 rpm for 10 minutes at 4° C. After centrifugation the medium was removed and the […] resuspended in ice-cold Tris-HCl buffer containing 5 mM MgCl2, pH 7.4 and disrupted with a Polytron and centrifuged at 20,000 rpm, for 30 minutes at 4° C. The pellet was resuspended by sonication in ice-cold Tris-HCl buffer (containing 5 mM MgCl2, pH 7.4), membrane aliquots were stored at −70° C. Determination of membrane protein was carried out by the method of Bradford (Bradford, M. M. Anal Biochem 1976, 72, 248-54).
(§4) Cell membranes containing human D2S and D3 receptors from CHO cells were thawed, rehomogenized with sonication at 4° C. in Tris-HCl, pH 7.4 containing 120 mM NaCl, 5 mM KCl, 2 mM CaCl2 and 1 mM MgCl2 (incubation buffer), and incubated with 0.2 nM [^3H]spiperone (106 Ci·mmol^−1, Amersham Biosciences, Freiburg, Germany), and drug diluted in incubation buffer. Non-specific binding was determined in the presence of 10 μM BP 897 ((Wermuth, C. G. et al. in Chem. Abstr. (Eur. Pat. 0779284, 1997)). Incubations were run at 25° C. for 120 min, and terminated by rapid filtration through PerkinElmer GF/B glass fibre filters (PerkinElmer Life Sciences, Rodgau, Germany) coated in 0.3% polyethylenimine (Sigma-Aldrich, Taufkirchen, Germany) using an Inotech cell harvester (Inotech AG, Dottikon, Switzerland). Unbound radioligand was removed with four washes of 1 ml of ice-cold 50 mM Tris-HCl buffer, pH 7.4, containing 120 mM NaCl. The filters were soaked in 9 ml Beta plate scint scintillator and counted using a PerkinElmer MicroBeta®Trilux scintillation counter (PerkinElmer Life Sciences). Competition binding data were analyzed by the software GraphPad Prism™ (2000, version 3.02, San Diego, Calif., USA), using non-linear least squares fit. For detailed screening the compounds have been tested at seven concentrations in triplicate carrying out three to five separate binding experiments for human dopamine D2S and for human dopamine D3 receptors and expressed as mean±standard error of the mean (SEM). Ki values were calculated from the IC50 values according to Cheng-Prusoff equation (Cheng, Y. C., Prusoff, W. H. Biochem. Pharmacol. 1973, 22, 3099-3108.).

[2] = biological target: T2, recombinant human D2(short) dopamine receptor (Homo sapiens, UniProt P14416); assay: Dopamine D2S receptor binding assay ([3H]spiperone, CHO cell membranes); details: human D2S receptors in CHO cells, 0.2 nM [3H]spiperone, mean ± SEM; read-out: Affinity Ki (D2)
T2 construct: expressed in transfected cells; host or cells: CHO-D2S cells (per Hayes et al. 1992)
T2 sequence (P14416 1-414 isoform P14416-2): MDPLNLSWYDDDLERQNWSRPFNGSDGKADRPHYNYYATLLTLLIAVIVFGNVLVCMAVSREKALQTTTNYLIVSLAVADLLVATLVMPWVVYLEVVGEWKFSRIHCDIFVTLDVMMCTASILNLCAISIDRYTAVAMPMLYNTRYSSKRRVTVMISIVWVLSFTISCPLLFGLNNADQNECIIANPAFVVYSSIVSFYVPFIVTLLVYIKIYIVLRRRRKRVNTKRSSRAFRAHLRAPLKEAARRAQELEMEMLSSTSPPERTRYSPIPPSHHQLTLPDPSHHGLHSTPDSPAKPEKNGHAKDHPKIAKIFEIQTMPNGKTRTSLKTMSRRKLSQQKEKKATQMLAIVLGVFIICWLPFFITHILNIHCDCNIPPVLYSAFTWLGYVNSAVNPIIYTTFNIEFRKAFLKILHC
Experimental: as §1, §2
CHO-D2S cells, expressing the recombinant human D2(short) dopamine receptor gene, (Hayes, G. et al., J. Mol. Endocrinol. 1992, 6, 920-926) were grown in Dulbecco's modified Eagle's medium/nutrient mixture F12 1:1 mixture supplemented with 2 mM glutamine, 10% fetal bovine serum, and 10 μl·ml^−1 penicillin/streptomycin in an atmosphere of 5% CO2 at 37° C. (Gibco™, Karlsruhe, Germany).
as §3, §4

In the case of `CCCN(CCCCC(=O)Nc1ccc2ccccc2c1)C1CCc2ncsc2C1` (stereo not drawn) (as salt: salt) [Compound 9, 5-[Propyl-(4,5,6,7-tetrahydro-benzothiazol-6-yl)-amino]-pentanoic acid naphthalen-2-ylamide], the melting point is reported as 85 °C.
In the case of `CCN(CCCCN1CCN(c2ccccc2OC)CC1)C1CCc2ncsc2C1` (stereo not drawn) (as salt: salt) [Compound 30, Ethyl-{4-[4-(2-methoxy-phenyl)-piperazin-1-yl]-butyl}-(4,5,6,7-tetrahydro-benzothiazol-6-yl)-amine], the melting point is reported as 164 °C.
Work on `CCCN(CCCCNC(=O)c1ccccc1)C1CCc2ncsc2C1` (stereo not drawn) (as salt: salt) [Compound 1, N-{4-[Propyl-(4,5,6,7-tetrahydro-benzothiazol-6-yl)-amino]-butyl}-benzamide] yielded a melting point of 152 °C.
`CCCN(CCCCNC(=O)N1CCC(c2ccccc2)CC1)C1CCc2ncsc2C1` (stereo not drawn) (as salt: salt) [Compound 64, 4-phenyl-N-(4-(propyl-(4,5,6,7-tetrahydrobenzo [d]thiazol-6-yl)amino)butyl)piperidine-1-carboxamide] gave a melting point of 56 °C.
For `CCN(CCCN1CCN(c2ccccc2OC)CC1)C1CCc2ncsc2C1` (stereo not drawn) (as salt: salt) [Compound 29, Ethyl-{3-[4-(2-methoxy-phenyl)-piperazin-1-yl]-propyl}-(4,5,6,7-tetrahydro-benzothiazol-6-yl)-amine], the melting point was 64 °C.
`CCCN(CCOc1ccccc1)C1CCc2ncsc2C1` (stereo not drawn) (as salt: salt) [Compound 69, N-(2-Phenoxyethyl)-N-propyl-4,5,6,7-tetrahydrobenzothiazol-6-amine] showed a melting point of 136 °C.
For `CCCN(CCCCNC(=O)C1CCc2ccccc2C1)C1CCc2ncsc2C1` (stereo not drawn) (as salt: salt) [Compound 23, 1,2,3,4-Tetrahydro-naphthalene-2-carboxylic acid {4-[propyl-(4,5,6,7-tetrahydro-benzothiazol-6-yl)-amino]-butyl}-amide], the melting point was 138 °C.
`CCCN(CCCCNC(=O)N1CC=C(c2ccccc2)CC1)C1CCc2ncsc2C1` (stereo not drawn) (as salt: salt) [Compound 62, 4-Phenyl-3,6-dihydro-2H-pyridine-1-carboxylic acid {4-[propyl-(4,5,6,7-tetrahydrobenzothiazol-6-yl)amino]butyl}amide] showed a melting point of 115 °C.
With `CCCN(CCCCNC(=O)C12CC3CC(CC(C3)C1)C2)C1CCc2ncsc2C1` (stereo not drawn) (as salt: salt) [Compound 65] the melting point was 114 °C.
With `CCCN(CCCCNC(=O)N1CCN(c2ccccc2)CC1)C1CCc2ncsc2C1` (stereo not drawn) [Compound 61, 4-Phenylpiperazine-1-carboxylic acid {4-[propyl-(4,5,6,7-tetrahydrobenzothiazol-6-yl)amino]butyl}amide] the Ki [1] was 2.09 ± 0.57 nM, the “Selectivity Ki(D2)/Ki(D3)” value [1] was 1640 and the Ki [2] was 3430 ± 1290 nM.
With `CCCN(CCN1CCN(C(=O)c2ccccc2)CC1)C1CCc2ncsc2C1` (stereo not drawn) [Compound 38, [2-(4-Benzoyl-piperazin-1-yl)-ethyl]-propyl-(4,5,6,7-tetrahydro-benzothiazol-6-yl)-amine] the Ki [1] was 27.4 ± 14.8 nM, the “Selectivity Ki(D2)/Ki(D3)” value [1] was 192 and the Ki [2] was 5270 ± 1850 nM.
With `CCCN(CCCCNC(=O)N1CCC(c2ccccc2)CC1)C1CCc2ncsc2C1` (stereo not drawn) [Compound 64, 4-phenyl-N-(4-(propyl-(4,5,6,7-tetrahydrobenzo [d]thiazol-6-yl)amino)butyl)piperidine-1-carboxamide] the Ki [1] was 6.29 ± 1.8 nM, the “Selectivity Ki(D2)/Ki(D3)” value [1] was 435 and the Ki [2] was 2730 ± 611 nM.
With `CCCN(CCOc1ccccc1)C1CCc2ncsc2C1` (stereo not drawn) [Compound 69, N-(2-Phenoxyethyl)-N-propyl-4,5,6,7-tetrahydrobenzothiazol-6-amine] the Ki [1] was 51 ± 10 nM, the “Selectivity Ki(D2)/Ki(D3)” value [1] was 91 and the Ki [2] was 4670 ± 1320 nM.
For `CCCN(CCCCNC(=O)c1ccc2ccccc2c1)C1CCc2ncsc2C1` (stereo not drawn) [Compound 5, Naphthalene-2-carboxylic acid {4-[propyl-(4,5,6,7-tetrahydro-benzothiazol-6-yl)-amino]-butyl}-amide], the Ki [1] was 1.16 ± 0.17 nM, the “Selectivity Ki(D2)/Ki(D3)” value [1] was 751 and the Ki [2] was 873 ± 388 nM.
In the case of `C#CCN(CCCCNC(=O)c1ccc2ccccc2c1)C1CCc2ncsc2C1` (stereo not drawn) [Compound 7, Naphthalene-2-carboxylic acid {4-[prop-2-ynyl-(4,5,6,7-tetrahydro-benzothiazol-6-yl)-amino]-butyl}-amide], the Ki [1] is reported as 7.76 ± 1.37 nM, the “Selectivity Ki(D2)/Ki(D3)” value [1] is reported as 1170 and the Ki [2] is reported as 9080 ± 684 nM.
For `CCCN(CCCCNC(=O)c1ccc2ncsc2c1)C1CCc2ncsc2C1` (stereo not drawn) [Compound 15], the Ki [1] was 0.65 ± 0.09 nM, the “Selectivity Ki(D2)/Ki(D3)” value [1] was 531 and the Ki [2] was 347 ± 133 nM.
For `CCN(CCCCNC(=O)c1ccc2ncsc2c1)C1CCc2ncsc2C1` (stereo not drawn) [Compound 14, Benzothiazole-6-carboxylic acid {4-[ethyl-(4,5,6,7-tetrahydro-benzothiazol-6-yl)-amino]-butyl}-amide], the Ki [1] was 5.61 ± 0.3 nM, the “Selectivity Ki(D2)/Ki(D3)” value [1] was 375 and the Ki [2] was 2100 ± 327 nM.
For `CCCN(CCCCNC(=O)C=Cc1ccc(Cl)cc1Cl)C1CCc2ncsc2C1` (stereo not drawn) [Compound 17, 2,4-Dichloro-N-{4-[propyl-(4,5,6,7-tetrahydro-benzothiazol-6-yl)-amino]-butyl}-cinnamoylamide], the Ki [1] was 2.41 ± 1 nM, the “Selectivity Ki(D2)/Ki(D3)” value [1] was 184 and the Ki [2] was 445 ± 55 nM.
For `CCCN(CCCCNC(=O)C=Cc1ccc(F)cc1)C1CCc2ncsc2C1` (stereo not drawn) [Compound 18, 4-Fluoro-N-{4-[propyl-(4,5,6,7-tetrahydro-benzothiazol-6-yl)-amino]-butyl}-cinnamoylamide], the Ki [1] was 0.57 ± 0.04 nM, the “Selectivity Ki(D2)/Ki(D3)” value [1] was 1479 and the Ki [2] was 842 ± 35 nM.
In the case of `CN(CCCCNC(=O)c1ccc2ccccc2c1)C1CCc2ncsc2C1` (stereo not drawn) [Compound 3, Naphthalene-2-carboxylic acid {4-[methyl-(4,5,6,7-tetrahydro-benzothiazol-6-yl)-amino]-butyl}-amide], the Ki [1] is reported as 25.4 ± 9.6 nM, the “Selectivity Ki(D2)/Ki(D3)” value [1] is reported as 151 and the Ki [2] is reported as 3820 ± 1100 nM.
In the case of `CCN(CCCCN1CCN(c2ccccc2OC)CC1)C1CCc2ncsc2C1` (stereo not drawn) [Compound 30, Ethyl-{4-[4-(2-methoxy-phenyl)-piperazin-1-yl]-butyl}-(4,5,6,7-tetrahydro-benzothiazol-6-yl)-amine], the Ki [1] is reported as 55.3 ± 16.1 nM, the “Selectivity Ki(D2)/Ki(D3)” value [1] is reported as 8.7 and the Ki [2] is reported as 480 ± 51 nM.
For `CCN(CCCCNC(=O)c1cc2ccccc2s1)C1CCc2ncsc2C1` (stereo not drawn) [Compound 12, Benzo[b]thiophene-2-carboxylic acid {4-[ethyl-(4,5,6,7-tetrahydro-benzothiazol-6-yl)-amino]-butyl}-amide], the Ki [1] was 2.92 ± 0.48 nM, the “Selectivity Ki(D2)/Ki(D3)” value [1] was 856 and the Ki [2] was 2500 ± 463 nM.
With `CCCN(CCCCNC(=O)C1CCc2ccccc2C1)C1CCc2ncsc2C1` (stereo not drawn) [Compound 23, 1,2,3,4-Tetrahydro-naphthalene-2-carboxylic acid {4-[propyl-(4,5,6,7-tetrahydro-benzothiazol-6-yl)-amino]-butyl}-amide] the Ki [1] was 1.72 ± 0.22 nM, the “Selectivity Ki(D2)/Ki(D3)” value [1] was 1262 and the Ki [2] was 2170 ± 566 nM.
With `CCCN(CCCCNC(=O)NC1Cc2ccccc2C1)C1CCc2ncsc2C1` (stereo not drawn) [Compound 60, 1-Indan-2-yl-3-{4-[propyl-(4,5,6,7-tetrahydrobenzothiazol-6-yl)amino]butyl}urea] the Ki [1] was 3.36 ± 1.21 nM, the “Selectivity Ki(D2)/Ki(D3)” value [1] was 649 and the Ki [2] was 2180 ± 1640 nM.
In the case of `O=C(NCCCCNC1CCc2ncsc2C1)c1ccc2ccccc2c1` (stereo not drawn) [Compound 2, Naphthalene-2-carboxylic acid [4-(4,5,6,7-tetrahydro-benzothiazol-6-ylamino)-butyl]-amide], the Ki [1] is reported as 147 ± 30 nM, the “Selectivity Ki(D2)/Ki(D3)” value [1] is reported as 143 and the Ki [2] is reported as 21000 ± 2550 nM.
